# Results as given in US7312330B2, “Bicycloheteroarylamine compounds as ion channel ligands and uses thereof” (Renovis, Inc., priority 2003, dated 2007).
# What was measured:
# Sprague-Dawley male rats = experiment: Thermal hyperalgesia (carrageenan, paw withdrawal latency); assay type: in vivo; settings: rat, 30 mg/kg, two hours after administration
# Procedure: Sprague-Dawley male rats obtained from Charles River, San Diego, Calif. were purchased at 150-175 g, and held for at least one week before testing. Pain was induced by injecting 100 μl of 2% carrageenan in 0.9% saline sub-Q into the right ventral hindpaw while the animals were under isofluorane anesthesia. Animals were then dosed one hour after with a concentration of 30 mg/kg of Compound 1. Two hours later, after acclimatizing in testing chambers for 20-30 minutes, animals were tested on both hindpaws for latency of paw withdrawal using a thermal testing apparatus. 2-3 trials were conducted with 10 minutes between trials. […] The figure depicts the time in seconds until animals withdraw from thermal stimulation at baseline and two hours after administration of delivery vehicle, control compound, and the dose of 30 mg/kg of Compound 1.
# [1] = Plasma protein binding by equilibrium dialysis, rat plasma; assay type: in vitro ADME; settings: pH 7.4, 37° C., read-out: plasma protein binding (% Bound)
# Procedure: (§1) Membranes from Harvard/Amika with a molecular weight cutoff of 5,000 were rinsed with dH2O then placed in pH 7.4 PBS supplied by Gibco. The membranes were allowed to soak for 1 hour. A stock of the test article was pooled with Warfarin, Atropine at 2 mM in DMSO. The test article was then dosed into human plasma in sodium citrate, Rat Plasma, and Mouse Plasma to a final 10 μM concentration (0.5% DMSO v/v).
# (§2) The pre-soaked membranes were then placed into dialysis chambers. 500 μL of PBS was added to one side of the chamber, and 500 μL of the Matrix containing the test article was added to the other side of the chamber. The chambers were then placed into an enclosed, heated rocker, which was pre-warmed to 37° C. and allowed to reach equilibrium for at least 22 hours. After 22 hours both sides were sampled. 100 μL of the donor side was added to 500 μL of PBS. 100 μL of the PBS side was added to 20 μL of fresh matrix. Samples then were crashed with 1:1 Acetonitrile and centrifuged at 10,000 RPM for 10 minutes. […]
# (§3) Standards were prepared in a 1:5 plasma:PBS mixture at 5, 1.5, 0.5, 0.15, 0.05, 0.015 and 0.005 μM concentrations. […] Protein binding values were calculated as follows: % Bound=[(Concentration in Donor−Concentration in Receiver)/(Concentration in Donor)]×100. % Recovery=[(Concentration in donor+Concentration in Receiver)]/(Concentration in Normal Initial)]×100
# [2] = Plasma protein binding by equilibrium dialysis, human plasma; assay type: in vitro ADME; settings: pH 7.4, 37° C., read-out: plasma protein binding (% Bound)
# Procedure: as §1, §2, §3
structure (smiles),measurement,setting,value
FC(F)(F)c1ccc(Nc2ncnc3c2CCN(c2ncccc2Cl)C3)cc1 [Compound 1],latency of paw withdrawal (reversal of thermal hyperalgesia),Sprague-Dawley male rats,significantly increased latency of paw withdrawal
same,"fraction unbound at 22 h, 10 μM",[1],< 0.001
same,"fraction unbound at 22 h, 10 μM",[2],< 0.001
